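Following 48 hours of exposure in 96-well plates, responses at five concentrations were used to interpolate endpoints linearly. TGI denotes the concentration required for complete inhibition of growth.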
Assays:
Experiment in all cases: NCI anticancer screen, dose series, 48 h
NCI-H460 lung = test system: NCI-H460 lung
SF-539 CNS = test system: SF-539 CNS
HCC-2998 colon = test system: HCC-2998 colon
SW-620 colon = test system: SW-620 colon
PC-3 prostate = test system: PC-3 prostate
UO-31 renal = test system: UO-31 renal
HCT-116 colon = test system: HCT-116 colon
786-0 renal = test system: 786-0 renal
SF-295 CNS = test system: SF-295 CNS
COLO 205 colon = test system: COLO 205 colon
IGROV1 ovarian = test system: IGROV1 ovarian
RPMI-8226 leukemia = test system: RPMI-8226 leukemia
RXF 393 renal = test system: RXF 393 renal
MDA-MB-231 breast = test system: MDA-MB-231 breast
HCT-15 colon = test system: HCT-15 colon
NCI/ADR-RES ovarian = test system: NCI/ADR-RES ovarian
UACC-257 melanoma = test system: UACC-257 melanoma
TK-10 renal = test system: TK-10 renal
HOP-62 NSCLC = test system: HOP-62 NSCLC
CAKI-1 renal = test system: CAKI-1 renal
MDA-N = test system: MDA-N
HOP-92 NSCLC = test system: HOP-92 NSCLC
HL-60(TB) leukemia = test system: HL-60(TB) leukemia
BT-549 breast = test system: BT-549 breast
SK-OV-3 ovarian = test system: SK-OV-3 ovarian
A498 renal = test system: A498 renal
LOX IMVI melanoma = test system: LOX IMVI melanoma
SNB-19 CNS = test system: SNB-19 CNS
DU-145 prostate = test system: DU-145 prostate
OVCAR-4 ovarian = test system: OVCAR-4 ovarian
MOLT-4 leukemia = test system: MOLT-4 leukemia
OVCAR-8 ovarian = test system: OVCAR-8 ovarian
MDA-MB-435 = test system: MDA-MB-435
MALME-3M melanoma = test system: MALME-3M melanoma
M14 melanoma = test system: M14 melanoma
UACC-62 melanoma = test system: UACC-62 melanoma
NCI-H226 lung = test system: NCI-H226 lung
HT29 colon = test system: HT29 colon
T-47D breast = test system: T-47D breast
SK-MEL-5 melanoma = test system: SK-MEL-5 melanoma
SK-MEL-28 melanoma = test system: SK-MEL-28 melanoma
A549 NSCLC = test system: A549 NSCLC
HS 578T breast = test system: HS 578T breast
OVCAR-3 ovarian = test system: OVCAR-3 ovarian
U251 CNS = test system: U251 CNS
ACHN renal = test system: ACHN renal
MCF7 breast = test system: MCF7 breast
EKVX NSCLC = test system: EKVX NSCLC
OVCAR-5 ovarian = test system: OVCAR-5 ovarian
CCRF-CEM leukemia = test system: CCRF-CEM leukemia
NCI-H23 lung = test system: NCI-H23 lung
SF-268 CNS = test system: SF-268 CNS
SNB-75 CNS = test system: SNB-75 CNS
K-562 leukemia = test system: K-562 leukemia
SN12C renal = test system: SN12C renal
KM12 colon = test system: KM12 colon
SR leukemia = test system: SR leukemia
SK-MEL-2 melanoma = test system: SK-MEL-2 melanoma
NCI-H522 lung = test system: NCI-H522 lung

Cc1cnccc1N=Nc1ccc(N(C)C)cc1
TGI (NCI-H460 lung): > 100 µM
TGI (SF-539 CNS): 69.2 µM
TGI (HCC-2998 colon): 49.6 µM
TGI (SW-620 colon): > 100 µM
TGI (PC-3 prostate): 97.3 µM
TGI (UO-31 renal): > 100 µM
TGI (HCT-116 colon): > 100 µM
TGI (786-0 renal): > 100 µM
TGI (SF-295 CNS): 57.5 µM
TGI (COLO 205 colon): 26.1 µM
TGI (IGROV1 ovarian): 99.6 µM
TGI (RPMI-8226 leukemia): 48.3 µM
TGI (RXF 393 renal): 53 µM
TGI (MDA-MB-231 breast): 70.6 µM
TGI (HCT-15 colon): > 100 µM
TGI (NCI/ADR-RES ovarian): 46.4 µM
TGI (UACC-257 melanoma): 53.5 µM
TGI (TK-10 renal): 50.9 µM
TGI (HOP-62 NSCLC): > 100 µM
TGI (CAKI-1 renal): > 100 µM
TGI (MDA-N): 69.3 µM
TGI (HOP-92 NSCLC): 36.1 µM
TGI (HL-60(TB) leukemia): > 100 µM
TGI (BT-549 breast): 49.3 µM
TGI (SK-OV-3 ovarian): 48.2 µM
TGI (A498 renal): 94.1 µM
TGI (LOX IMVI melanoma): 53.9 µM
TGI (SNB-19 CNS): > 100 µM
TGI (DU-145 prostate): > 100 µM
TGI (OVCAR-4 ovarian): 61.2 µM
TGI (MOLT-4 leukemia): 79.5 µM
TGI (OVCAR-8 ovarian): 60.1 µM
TGI (MDA-MB-435): 41.2 µM
TGI (MALME-3M melanoma): > 100 µM
TGI (M14 melanoma): > 100 µM
TGI (UACC-62 melanoma): 40.7 µM
TGI (NCI-H226 lung): 29.1 µM
TGI (HT29 colon): 53.9 µM
TGI (T-47D breast): > 100 µM
TGI (SK-MEL-5 melanoma): 29.5 µM
TGI (SK-MEL-28 melanoma): 52.7 µM
TGI (A549 NSCLC): > 100 µM
TGI (HS 578T breast): > 100 µM
TGI (OVCAR-3 ovarian): 72.1 µM
TGI (U251 CNS): 70.9 µM
TGI (ACHN renal): > 100 µM
TGI (MCF7 breast): 35 µM
TGI (EKVX NSCLC): 32.9 µM
TGI (OVCAR-5 ovarian): > 100 µM
TGI (CCRF-CEM leukemia): > 100 µM
TGI (NCI-H23 lung): 68.6 µM
TGI (SF-268 CNS): 56.5 µM
TGI (SNB-75 CNS): 46.2 µM
TGI (K-562 leukemia): 76.7 µM
TGI (SN12C renal): 72.6 µM
TGI (KM12 colon): > 100 µM

Cc1ccc2c(C(=O)c3c(C)n(CCN4CCOCC4)c4ccccc34)cccc2c1
TGI (NCI-H460 lung): 89.3 µM
TGI (SF-539 CNS): 12.8 µM
TGI (SW-620 colon): 16.5 µM
TGI (PC-3 prostate): 43.2 µM
TGI (UO-31 renal): > 100 µM
TGI (HCT-116 colon): 40.9 µM
TGI (786-0 renal): 49 µM
TGI (SF-295 CNS): 37.1 µM
TGI (SR leukemia): > 100 µM
TGI (IGROV1 ovarian): > 100 µM
TGI (RPMI-8226 leukemia): 18.6 µM
TGI (RXF 393 renal): 54.6 µM
TGI (MDA-MB-231 breast): 47.9 µM
TGI (HCT-15 colon): 35.4 µM
TGI (NCI/ADR-RES ovarian): 43.1 µM
TGI (UACC-257 melanoma): 69.4 µM
TGI (TK-10 renal): 55.6 µM
TGI (HOP-62 NSCLC): 99.6 µM
TGI (CAKI-1 renal): > 100 µM
TGI (MDA-N): 84.8 µM
TGI (SK-MEL-2 melanoma): 42.4 µM
TGI (HOP-92 NSCLC): 73.1 µM
TGI (HL-60(TB) leukemia): 10.4 µM
TGI (BT-549 breast): 51.6 µM
TGI (SK-OV-3 ovarian): 61 µM
TGI (A498 renal): > 100 µM
TGI (NCI-H522 lung): 29.3 µM
TGI (LOX IMVI melanoma): 42.1 µM
TGI (SNB-19 CNS): > 100 µM
TGI (DU-145 prostate): 94.3 µM
TGI (OVCAR-4 ovarian): 61.1 µM
TGI (MOLT-4 leukemia): 36.3 µM
TGI (OVCAR-8 ovarian): 56.1 µM
TGI (MDA-MB-435): 5.42 µM
TGI (MALME-3M melanoma): 37.6 µM
TGI (M14 melanoma): 62 µM
TGI (UACC-62 melanoma): 45.2 µM
TGI (NCI-H226 lung): 19.9 µM
TGI (HT29 colon): 25.6 µM
TGI (T-47D breast): > 100 µM
TGI (SK-MEL-5 melanoma): 13 µM
TGI (SK-MEL-28 melanoma): > 100 µM
TGI (A549 NSCLC): > 100 µM
TGI (HS 578T breast): 25.6 µM
TGI (OVCAR-3 ovarian): 12.4 µM
TGI (U251 CNS): 41 µM
TGI (ACHN renal): 88.4 µM
TGI (MCF7 breast): 16.8 µM
TGI (EKVX NSCLC): 63.3 µM
TGI (OVCAR-5 ovarian): 96.6 µM
TGI (CCRF-CEM leukemia): 13 µM
TGI (NCI-H23 lung): > 100 µM
TGI (SF-268 CNS): 33.8 µM
TGI (K-562 leukemia): > 100 µM
TGI (SN12C renal): > 100 µM
TGI (KM12 colon): 57.7 µM

c1csc(-c2ccsc2-c2ccsc2)c1
TGI (NCI-H460 lung): > 100 µM
TGI (SF-539 CNS): > 100 µM
TGI (HCC-2998 colon): > 100 µM
TGI (SW-620 colon): > 100 µM
TGI (PC-3 prostate): > 100 µM
TGI (UO-31 renal): > 100 µM
TGI (HCT-116 colon): > 100 µM
TGI (786-0 renal): > 100 µM
TGI (SF-295 CNS): > 100 µM
TGI (SR leukemia): > 100 µM
TGI (COLO 205 colon): > 100 µM
TGI (IGROV1 ovarian): > 100 µM
TGI (RPMI-8226 leukemia): > 100 µM
TGI (RXF 393 renal): 76.3 µM
TGI (MDA-MB-231 breast): > 100 µM
TGI (HCT-15 colon): > 100 µM
TGI (NCI/ADR-RES ovarian): > 100 µM
TGI (UACC-257 melanoma): > 100 µM
TGI (TK-10 renal): > 100 µM
TGI (HOP-62 NSCLC): > 100 µM
TGI (CAKI-1 renal): > 100 µM
TGI (MDA-N): > 100 µM
TGI (SK-MEL-2 melanoma): 42.3 µM
TGI (HOP-92 NSCLC): > 100 µM
TGI (HL-60(TB) leukemia): > 100 µM
TGI (BT-549 breast): > 100 µM
TGI (SK-OV-3 ovarian): > 100 µM
TGI (A498 renal): > 100 µM
TGI (LOX IMVI melanoma): > 100 µM
TGI (DU-145 prostate): > 100 µM
TGI (OVCAR-4 ovarian): > 100 µM
TGI (MOLT-4 leukemia): > 100 µM
TGI (OVCAR-8 ovarian): > 100 µM
TGI (MDA-MB-435): > 100 µM
TGI (M14 melanoma): > 100 µM
TGI (UACC-62 melanoma): > 100 µM
TGI (HT29 colon): > 100 µM
TGI (T-47D breast): > 100 µM
TGI (SK-MEL-5 melanoma): > 100 µM
TGI (SK-MEL-28 melanoma): > 100 µM
TGI (A549 NSCLC): > 100 µM
TGI (HS 578T breast): > 100 µM
TGI (OVCAR-3 ovarian): 87.6 µM
TGI (U251 CNS): > 100 µM
TGI (ACHN renal): > 100 µM
TGI (MCF7 breast): > 100 µM
TGI (EKVX NSCLC): > 100 µM
TGI (OVCAR-5 ovarian): > 100 µM
TGI (CCRF-CEM leukemia): > 100 µM
TGI (NCI-H23 lung): > 100 µM
TGI (SF-268 CNS): > 100 µM
TGI (SNB-75 CNS): > 100 µM
TGI (K-562 leukemia): > 100 µM
TGI (SN12C renal): > 100 µM
TGI (KM12 colon): > 100 µM

From PubChem BioAssay (NCI)
